The record followed here is patent US11529344B2, “EZH2 inhibitor combination therapies” (Pfizer Inc., priority 2017, dated 2022).

Structures are written as SMILES.

For test [1], the system named is H3K27Me2 in DMS114 tumors. Put plainly: H3K27Me2 ELISA on histones of DMS114 xenograft tumors. The following applies: Mus musculus, DMS-114, 1320 h; 300 mg/kg BID, tumors harvested at Day 55; read-out: maximum inhibition of H3K27Me2 in tumor samples. Format: in vivo, female NOD/SCID mice. The procedure: Extracts were aliquoted and stored at −20° C. (short term) or −80° C. (long term). […] Data was analyzed using GraphPad Prism version 7.02.
The in vivo activity of Compound 1 against EZH2 in the DMS114 SCLC xenograft model was determined by measurement of the relative amount of cellular H3K27Me3 and Me2 levels with ELISA using the tumor tissue samples harvested at Day 55 from the study described in Example 3 above.
A general note: In an ELISA, binding on a coated surface is turned into a signal by an enzyme label.

The next test concerns DMS114 SCLC cells. The test is described as follows: Cell growth inhibition assay for DMS114 SCLC cells. The class given is cell-based. The following applies: Homo sapiens, DMS-114, 17-21 days of treatment, mean of 6 biological replicates, read-out: Proliferation IC50 ± SD (nM) (n). The procedure: COR-L88 (92031917) cells were purchased from ECACC. […] No. 1565565).
DMS114 SCLC cells were plated in complete cell culture medium described above (1 mL/well) in a 12-well clear, flat bottom polystyrene tissue culture plate (Falcon, Cat. 353225) at a density of 10,000 cells/well. Plates were incubated overnight for 16 hours at 37° C. and 5% CO2. Cells were then treated for 3 days with a 10-point, 3-fold serial dilution of Compound 1 starting at a high concentration of 3 μM. After 3 days, cells from each individual dose treatment were dissociated with Trypsin-EDTA (0.25%) (Gibco/Life Technologies Cat. 25200-056), resuspended in fresh medium, and counted using Vi-Cell cell counter and cell viability analyzer (Beckman Coulter, cat. 383556). […] Plates were then read in an Infinite M200 Pro microplate reader (Tecan Cat. 396235) using a fluorescence excitation wavelength of 540 nm to 570 nm (peak excitation is 570 nm) and emission at 580 nm to 610 nm (peak emission is 585 nm). IC50 values were calculated using nonlinear regression dose response curve fit in GraphPad Prism version 7.02.
The activity of Compound 1 in inhibiting cell proliferation of EZH2-WT DMS114 SCLC cells was also assessed using the cell proliferation assay for DMS114 SCLC cells described above. […]

What is called inhibition is the percentage by which the read-out fell short of the control. Turning to `COc1cc(C)[nH]c(=O)c1CN1CCc2c(Cl)cc([C@H](OC)C3COC3)c(Cl)c2C1=O` [Compound 1, 5,8-dichloro-2-[(4-methoxy-6-methyl-2-oxo-1,2-dihydro-pyridin-3-yl)methyl]-7-[(R)-methoxy(oxetan-3-yl)methyl]-3,4-dihydroisoquinolin-1(2H)-one], the inhibition at 300 mg/kg in test [1] came to 82%. For the same compound, the IC50 in the test on DMS114 SCLC cells stood at 18.8 nM.
